Test results taken from patent US11819499B2, “Single-dose, ready-to-use injectable formulations” (BioSplice Therapeutics, Inc., priority 2016, dated 2023).
Marks after values point to notes of the source that are not given here.

What was measured:
Type in all cases: physicochemical
[1] = Drying or heating in a DSC chamber followed by XRD (form conversion)
Experimental: The Form 1 solid was dried at 75° C. under vacuum overnight, and XRD, DSC, and TGA scans were performed. […] However, the DSC scans indicated the absence of endotherm. The loss of the early peak on the DSC scan had no effect on the XRD trace, showing that the wide endotherm between 50-100° C. on DSC scan was due to the free solvent.
The Form 1 solid was heated in a DSC chamber to 305° C. (past the endotherm/exotherm around 280° C.), and then scanned by XRD. […] It can be concluded that the endotherm/exotherm around 280° C. might be due to melting/crystallization events.
The Form 2 solid was heated in a DSC machine to 90° C. (past the wide endotherm between 50-100° C.); to 270° C. (past the endotherm/exotherm around 240° C.); and finally to 330° C. (past the […]). The residual solid was analyzed by XRD. […] The wide endotherm between 50-100° C. might be free solvent or hydrate. […] Thus, the exotherm around 290° C. was a re-crystallization event. According to an XRD and DSC overlay, the behavior of Form 2* was similar to Form 2.
This has been confirmed for Forms 1 and 2.
Form 13 solid was heated in a DSC chamber to 170° C. (past the endotherm between 50-100° C.), and then scanned by XRD. […] It can be concluded that the endotherm between 50-100° C. is due to bonded water.
Form 13 solid was heated in a DSC chamber to 330° C. (past the endotherm/exotherm around 300° C.), and then scanned by XRD. […] It can be concluded that the endotherm/exotherm is due to melting/crystallization events.

[2] = Competitive slurry experiments between polymorph forms (15 forms mixed, 3-5 days, XRD)
Experimental: In order to find out the thermodynamic stability between the different forms, several competitive slurry experiments were carried out. Form 1, Form 2, Form 2*, Form 3, Form 4, Form 4*, Form 4**, Form 5, Form 7, Form 8, Form 9, Form 10, Form 11, Form 11*, and Form 13 (10 mg for each) was mixed and slurried in 2 mL of solvent at both RT and 50° C. The solids were slurried for 3-5 days and then analyzed by XRD.

[3] = Dynamic vapor sorption (DVS) scan
Source text: The purity of the Form 13 sample was 98.8%; the KF of an undried Form 13 sample was 35.7%.

[4] = Exposure to relative humidity / air followed by XRD; settings: for XRD after drying at 50° C. under vacuum: after air exposure overnight, then dried at 50° C. under vacuum; for XRD after exposure to air overnight: exposed to air overnight
Source text: FIGS. 15A-15D are scans of Form 1 in the presence of increasing relative humidity (RH), an example of a non-stoichiometric or stoichiometric hydrate of polymorph Form 1 of the compound of Formula (I). FIG. 15A is an x-ray powder diffraction scan of Form 1 exposed to 10% RH as the anhydrous Form 1. FIG. 15B is an x-ray powder diffraction scan of Form 1 exposed to 20% RH as a partial hydrate of Form 1. FIG. 15C is an x-ray powder diffraction scan of Form 1 exposed to 30% RH as a hydrate of Form 1 (≈10-12% water uptake). FIG. 15D is an x-ray powder diffraction scan of Form 1 exposed to 90% RH as a full hydrate of Form 1 (≈17-20% water uptake). […] The hydrate lost its water below 30% RH. […] The crystal lattice of Form 1 expanded when water was sorbed, giving rise to XRD peaks at ˜5, ˜7 and ˜11 degrees while maintaining the main XRD pattern. The hydrates of Form 1 of a compound of Formula (I) (Form 11) were fully reversible, and lost water when exposed to % RH of less than 20%, turning Form 11 to hydrated forms of Form 1 and to the anhydrous Form 1. Solvates 1 and 2 solids were exposed to air overnight, and then analyzed by XRD. After the analysis, the solids were dried at 50° C. under vacuum, and then analyzed by XRD again.

[5] = Reslurry experiments (polymorph screen) in 39 pure and binary solvents at RT and 50° C. for 5 days, XRD of wet and dry samples
Experimental: Reslurry experiments in various solvents were performed. Approximately 30-80 mg of the starting solid (a non-stoichiometric or stoichiometric hydrate of Form 1 having between 1% and about 20% by weight water) was slurried in 39 different solvents (pure and binary solvents; the ratio of organic solvent/water (V/V) was 95%/5%) at RT and 50° C. for 5 days. Three solvates, one hydrate, and eleven non-solvated forms were identified. […] XRD of both wet and dry samples were scanned (FIG. 12A (dry sample)).
The slurry experiments identified 3 solvated forms from wet samples (Solvates 1, 2, and 3); 2 non-stoichiometric hydrates of Form 1 (Forms 12 and 13); and 11 non-solvated forms (Forms 1-11). In some instances, similar XRD scans with minor differences were obtained. These were considered to be part of the same class (e.g., the same form). For example, XRD scans of Form 2 and Form 2* were similar and were considered to belong to the same class. The solvated forms were obtained from wet sample analysis; after drying, the sample indicated a different XRD.
Solvate 1 was obtained from acetone at RT, and after drying, a low crystallinity solid was generated. Solvate 2 was obtained from acetone (at RT) and acetone/water (at RT), and after drying, Form 4** was generated. Solvate 3 was obtained from EtOH/water at RT, and after drying, Form 2 was generated.

[6] = reslurry in Acetonitrile/water (5% water), RT
[7] = reslurry in EA/water (5% water), RT
[8] = reslurry in Heptane/water (5% water), RT
[9] = reslurry in IPAc/water (5% water), RT
[10] = reslurry in MA/water (5% water), 50° C.
[11] = reslurry in MIBK/water (5% water), RT
[12] = reslurry in MeOH/water (5% water), RT
[13] = reslurry in MtBE/water (5% water), RT
[14] = reslurry in n-Butyl acetate/water (5% water), RT
[15] = reslurry in Acetone/water (5% water), RT
[16] = reslurry in EtOH/water (5% water), RT

CC(C)CC(=O)Nc1cncc(-c2ccc3[nH]nc(-c4nc5c(-c6cccc(F)c6)cncc5[nH]4)c3c2)c1 [Form 2, N-(5-(3-(7-(3-fluorophenyl)-3H-imidazo[4,5-c]pyridin-2-yl)-1H-indazol-5-yl)pyridin-3-yl)-3-methylbutanamide]
form after heating (XRD) ([1]; heated in a DSC machine to 90° C.): did not change | form after heating (XRD) ([1]; heated to 270° C.): converted to low crystalline solids | form after heating (XRD) ([1]; heated to 330° C.): converted to Form 9 | form when heated to just before melting ([1]; heated to just before melting at 364° C.): convert to Form 9 | thermodynamic stability between forms (competitive slurry) ([2]; MeOH, EtOH, and acetone system at both RT and 50° C.): most stable form

CC(C)CC(=O)Nc1cncc(-c2ccc3[nH]nc(-c4nc5c(-c6cccc(F)c6)cncc5[nH]4)c3c2)c1 [Form 4, N-(5-(3-(7-(3-fluorophenyl)-3H-imidazo[4,5-c]pyridin-2-yl)-1H-indazol-5-yl)pyridin-3-yl)-3-methylbutanamide]
thermodynamic stability between forms (competitive slurry) ([2]; EA at RT and 50° C.): most stable

CC(C)CC(=O)Nc1cncc(-c2ccc3[nH]nc(-c4nc5c(-c6cccc(F)c6)cncc5[nH]4)c3c2)c1 [Form 9, N-(5-(3-(7-(3-fluorophenyl)-3H-imidazo[4,5-c]pyridin-2-yl)-1H-indazol-5-yl)pyridin-3-yl)-3-methylbutanamide]
form before and after the DVS scan ([3]; DVS scan): did not change its form | water absorption (DVS scan) ([3]; at 90% RH): 0.8%

CC(C)CC(=O)Nc1cncc(-c2ccc3[nH]nc(-c4nc5c(-c6cccc(F)c6)cncc5[nH]4)c3c2)c1 [Form 11, N-(5-(3-(7-(3-fluorophenyl)-3H-imidazo[4,5-c]pyridin-2-yl)-1H-indazol-5-yl)pyridin-3-yl)-3-methylbutanamide]
RH below which the hydrate lost its water ([4]; relative humidity): less than 20%

CC(C)CC(=O)Nc1cncc(-c2ccc3[nH]nc(-c4nc5c(-c6cccc(F)c6)cncc5[nH]4)c3c2)c1 [Form 12, N-(5-(3-(7-(3-fluorophenyl)-3H-imidazo[4,5-c]pyridin-2-yl)-1H-indazol-5-yl)pyridin-3-yl)-3-methylbutanamide]
Dry (form by XRD) [5, 6]: Form 1 | Wet (form by XRD) [5, 6]: Form 12 | Dry (form by XRD) [5, 7]: Form 1 | Wet (form by XRD) [5, 7]: Form 12 | Dry (form by XRD) [5, 8]: Form 12 | Wet (form by XRD) [5, 8]: Form 13 | Dry (form by XRD) [5, 9]: Form 1 | Wet (form by XRD) [5, 9]: Form 12 | Dry (form by XRD) [5, 10]: Form 4 | Wet (form by XRD) [5, 10]: Form 12 | Dry (form by XRD) [5, 11]: Form 1 | Wet (form by XRD) [5, 11]: Form 12 | Dry (form by XRD) [5, 12]: Form 1 | Wet (form by XRD) [5, 12]: Form 12 | Dry (form by XRD) [5, 13]: Form 1 | Wet (form by XRD) [5, 13]: Form 12 | Dry (form by XRD) [5, 14]: Form 12 | Wet (form by XRD) [5, 14]: Form 13

CC(C)CC(=O)Nc1cncc(-c2ccc3[nH]nc(-c4nc5c(-c6cccc(F)c6)cncc5[nH]4)c3c2)c1 [Solvate 1, N-(5-(3-(7-(3-fluorophenyl)-3H-imidazo[4,5-c]pyridin-2-yl)-1H-indazol-5-yl)pyridin-3-yl)-3-methylbutanamide]
Dry (form by XRD) ([5]; reslurry in Acetone, RT): Low | Wet (form by XRD) ([5]; reslurry in Acetone, RT): Solvate 1 | XRD after drying at 50° C. under vacuum [4]: still low crystallinity solid | XRD after exposure to air overnight [4]: converted to low crystallinity

CC(C)CC(=O)Nc1cncc(-c2ccc3[nH]nc(-c4nc5c(-c6cccc(F)c6)cncc5[nH]4)c3c2)c1 [Solvate 2, N-(5-(3-(7-(3-fluorophenyl)-3H-imidazo[4,5-c]pyridin-2-yl)-1H-indazol-5-yl)pyridin-3-yl)-3-methylbutanamide]
Dry (form by XRD) ([5]; reslurry in Acetone, 50° C.): Form 4** | Wet (form by XRD) ([5]; reslurry in Acetone, 50° C.): Solvate 2 | Dry (form by XRD) [5, 15]: Form 4** | Wet (form by XRD) [5, 15]: Solvate 2 | XRD after drying at 50° C. under vacuum [4]: remained the same as the solid exposed to air overnight | XRD after exposure to air overnight [4]: changed a little

CC(C)CC(=O)Nc1cncc(-c2ccc3[nH]nc(-c4nc5c(-c6cccc(F)c6)cncc5[nH]4)c3c2)c1 [Solvate 3, N-(5-(3-(7-(3-fluorophenyl)-3H-imidazo[4,5-c]pyridin-2-yl)-1H-indazol-5-yl)pyridin-3-yl)-3-methylbutanamide]
Dry (form by XRD) [5, 16]: Form 2 | Wet (form by XRD) [5, 16]: Solvate 3
